Data set [1] concerns the target T1, Protein mono-ADP-ribosyltransferase TIPARP (Homo sapiens) (UniProt Q7Z3E1).
T1 sequence (whole entry): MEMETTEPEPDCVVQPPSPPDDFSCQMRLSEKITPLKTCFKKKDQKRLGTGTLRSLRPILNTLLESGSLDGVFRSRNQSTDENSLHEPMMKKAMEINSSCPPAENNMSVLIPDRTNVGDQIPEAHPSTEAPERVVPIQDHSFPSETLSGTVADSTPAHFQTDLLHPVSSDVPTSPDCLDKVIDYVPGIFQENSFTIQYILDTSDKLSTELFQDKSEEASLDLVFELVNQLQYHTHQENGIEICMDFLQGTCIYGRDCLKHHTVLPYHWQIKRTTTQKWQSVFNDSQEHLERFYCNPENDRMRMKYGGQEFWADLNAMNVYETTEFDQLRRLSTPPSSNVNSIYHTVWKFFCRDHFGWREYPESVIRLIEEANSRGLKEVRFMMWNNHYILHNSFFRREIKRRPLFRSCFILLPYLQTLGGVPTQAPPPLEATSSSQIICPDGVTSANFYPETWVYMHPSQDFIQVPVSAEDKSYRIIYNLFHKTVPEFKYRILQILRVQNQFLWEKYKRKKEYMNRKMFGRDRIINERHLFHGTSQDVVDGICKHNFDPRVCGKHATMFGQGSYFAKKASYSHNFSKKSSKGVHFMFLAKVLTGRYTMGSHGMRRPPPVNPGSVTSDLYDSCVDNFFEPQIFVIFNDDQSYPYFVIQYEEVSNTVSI
Put plainly: Inhibition of human recombinant N-terminal FLAG tagged PARP7 (400 to 657 end residues) at 100 nM incubated for 1 hr by ELISA assay relative to control.

The target in data set [2] is T2, Protein mono-ADP-ribosyltransferase TIPARP (Homo sapiens, UniProt Q7Z3E1).
T2 sequence (Q7Z3E1 whole entry): T1 sequence (whole entry)
Put plainly: Inhibition of human recombinant N-terminal FLAG tagged PARP7 (400 to 657 end residues) incubated for 1 hr by ELISA assay.

Data set [3] deals with Poly [ADP-ribose] polymerase 1 (Homo sapiens, UniProt P09874). Put plainly: Inhibition of human recombinant N-terminal GST-tagged PARP1 (2 to 1014 end residues) incubated for 1 hr by ELISA assay.
Chain of Poly [ADP-ribose] polymerase 1 (P09874 whole entry): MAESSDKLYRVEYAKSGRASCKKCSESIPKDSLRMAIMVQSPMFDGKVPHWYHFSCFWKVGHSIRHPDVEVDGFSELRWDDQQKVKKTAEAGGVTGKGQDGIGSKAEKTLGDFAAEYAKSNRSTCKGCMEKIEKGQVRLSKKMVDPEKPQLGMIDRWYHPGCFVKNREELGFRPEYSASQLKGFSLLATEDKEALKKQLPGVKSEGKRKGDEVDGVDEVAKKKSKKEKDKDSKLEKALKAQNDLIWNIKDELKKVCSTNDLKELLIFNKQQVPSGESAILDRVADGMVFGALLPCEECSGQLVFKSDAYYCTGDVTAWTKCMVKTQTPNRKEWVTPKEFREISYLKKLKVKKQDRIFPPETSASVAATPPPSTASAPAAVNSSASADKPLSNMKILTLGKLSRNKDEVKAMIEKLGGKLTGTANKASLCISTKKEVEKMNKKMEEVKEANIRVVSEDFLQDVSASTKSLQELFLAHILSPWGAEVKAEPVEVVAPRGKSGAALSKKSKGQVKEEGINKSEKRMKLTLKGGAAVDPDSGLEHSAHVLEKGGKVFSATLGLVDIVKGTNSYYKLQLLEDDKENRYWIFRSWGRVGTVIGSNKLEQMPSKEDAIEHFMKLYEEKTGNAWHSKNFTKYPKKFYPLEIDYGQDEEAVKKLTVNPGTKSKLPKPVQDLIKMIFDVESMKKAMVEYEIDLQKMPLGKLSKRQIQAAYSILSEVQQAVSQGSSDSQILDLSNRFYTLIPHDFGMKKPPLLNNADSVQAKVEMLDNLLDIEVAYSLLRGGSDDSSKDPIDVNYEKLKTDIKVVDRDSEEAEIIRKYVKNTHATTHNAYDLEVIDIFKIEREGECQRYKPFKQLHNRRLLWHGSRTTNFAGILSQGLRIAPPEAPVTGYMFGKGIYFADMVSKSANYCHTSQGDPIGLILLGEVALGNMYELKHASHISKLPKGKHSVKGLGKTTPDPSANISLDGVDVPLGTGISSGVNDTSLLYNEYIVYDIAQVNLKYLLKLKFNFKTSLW
Data set [4] can be described thus: Half life in ICR mouse at 1 mg/kg, iv measured upto 24 hrs by LC-MS/MS analysis. The conditions noted are these: in vivo. It is filed as ADME, organism-based.
Data set [5] is described as follows: Half life in ICR mouse at 10 mg/kg, po measured upto 24 hrs by LC-MS/MS analysis. Particulars: in vivo. The class given is ADME, organism-based.
Data set [6] can be described thus: Tmax in ICR mouse at 1 mg/kg, iv measured upto 24 hrs by LC-MS/MS analysis. The class given is ADME, organism-based. The conditions noted are these: in vivo.
Data set [7] is described as follows: Tmax in ICR mouse at 10 mg/kg, po measured upto 24 hrs by LC-MS/MS analysis. The class given is ADME, organism-based. Particulars: in vivo.
A short description of data set [8]: Initial plasma concentration in ICR mouse at 1 mg/kg, iv measured upto 24 hrs by LC-MS/MS analysis. The class given is ADME, organism-based.
A short description of data set [9]: AUC(0 to infinity) in ICR mouse at 1 mg/kg, iv measured upto 24 hrs by LC-MS/MS analysis. The class given is ADME, organism-based. Set-up: time < 24 hrs, dose 1 mg/kg, route iv. Particulars: in vivo.
The nature of data set [10]: AUC(0 to infinity) in ICR mouse at 10 mg/kg, po measured upto 24 hrs by LC-MS/MS analysis. The conditions noted are these: in vivo. Also on record: dose 10 mg/kg, time < 24 hrs, route po. The class given is ADME, organism-based.
Data set [11] is described as follows: Apparent volume of distribution in ICR mouse at 1 mg/kg, iv measured upto 24 hrs by LC-MS/MS analysis. The class given is ADME, organism-based. Particulars: in vivo, read-out: Vz.
Data set [12] can be described thus: Apparent volume of distribution in ICR mouse at 10 mg/kg, po measured upto 24 hrs by LC-MS/MS analysis. It is filed as ADME, organism-based. The conditions noted are these: in vivo.
Data set [13] is described as follows: Clearance in ICR mouse at 1 mg/kg, iv measured upto 24 hrs by LC-MS/MS analysis. It is filed as ADME, organism-based. Particulars: in vivo.
Data set [14] can be described thus: Clearance in ICR mouse at 10 mg/kg, po measured upto 24 hrs by LC-MS/MS analysis. The class given is ADME, organism-based. The conditions noted are these: in vivo.
A short description of data set [15]: MRT(0 to infinity) in ICR mouse at 1 mg/kg, iv measured upto 24 hrs by LC-MS/MS analysis. The class given is ADME, organism-based. The conditions noted are these: in vivo.
Data set [16] can be described thus: MRT(0 to infinity) in ICR mouse at 10 mg/kg, po measured upto 24 hrs by LC-MS/MS analysis. It is filed as ADME, organism-based. The conditions noted are these: in vivo.
Data set [17] in a line: Oral bioavailability in ICR mouse at 10 mg/kg measured upto 24 hrs by LC-MS/MS analysis. The class given is ADME, organism-based. Particulars: in vivo.
A short description of data set [18]: Cytotoxicity against mouse AML12 cells assessed as inhibition of cell growth measured after 6 days by MTT assay. It is filed as toxicity, cell-based.
The test system of data set [19] is CT26. Put plainly: Antitumor activity against mouse CT26 cells xenografted in BALB/c mouse assessed as tumor growth inhibition at 100 mg/kg, po bid measured for 14 days. The class given is functional. Particulars: CT26, 336 h, time 14 day, read-out: TGI.
Data set [20] in a line: Toxicity in BALB/c mouse implanted with mouse CT26 cells assessed as lung damage at 100 mg/kg, po measured for 14 days by hematoxylin and eosin staining based fluorescence microscopic analysis. It is filed as organism-based. Particulars: in vivo, 336 h, time 14 day.
Data set [21] in a line: Toxicity in BALB/c mouse implanted with mouse CT26 cells assessed as liver damage at 100 mg/kg, po measured for 14 days by hematoxylin and eosin staining based fluorescence microscopic analysis. The class given is organism-based. Particulars: in vivo, 336 h, time 14 day.
Data set [22] can be described thus: Toxicity in BALB/c mouse implanted with mouse CT26 cells assessed as kidney damage at 100 mg/kg, po measured for 14 days by hematoxylin and eosin staining based fluorescence microscopic analysis. The class given is organism-based. The conditions noted are these: in vivo, 336 h, time 14 day.
Data set [23] can be described thus: Toxicity in BALB/c mouse implanted with mouse CT26 cells assessed as spleen damage at 100 mg/kg, po measured for 14 days by hematoxylin and eosin staining based fluorescence microscopic analysis. The class given is organism-based. The conditions noted are these: in vivo, 336 h, time 14 day.
Data set [24] concerns CT26. The experiment in a line: Antitumor activity against mouse CT26 cells implanted in BALB/c mouse assessed as increase in infiltration of CD3 positive CD4 positive T lymphocytes in tumors at 100 mg/kg, po measured after 14 days by flow cytometry (reference value: 7.95%). It is filed as functional. The conditions noted are these: time 14 day.
In data set [25] the test system is CT26. Put plainly: Antitumor activity against mouse CT26 cells implanted in BALB/c mouse assessed as increase in infiltration of CD4 positive CD8 positive T lymphocytes in tumors at 100 mg/kg, po measured after 14 days by flow cytometry (reference value: 6.67%). The class given is functional. The conditions noted are these: time 14 day.

Structures are written as SMILES.

As for `C[C@@H](CN1CC(C(=O)N2CCN(c3ncc(F)cn3)CC2)C1)Nc1cn[nH]c(=O)c1C(F)(F)F`, the inhibition in data set [1] worked out at 26%.

In the case of `C[C@@H](CN1CC(C(=O)N2CCN(c3ccc(C(F)(F)F)cn3)CC2)C1)Nc1cn[nH]c(=O)c1C(F)(F)F`, the inhibition in data set [1] came out at 82%. Besides, the 50% inhibitory concentration (IC50) in data set [2] was 14.5 nM.

Consider `CC1CN(c2ncc(C(F)(F)F)cn2)CC(C)N1C(=O)C1CN(C[C@H](C)Nc2cn[nH]c(=O)c2C(F)(F)F)C1` (some centres undefined), for which the inhibition in data set [1] was determined as 77%. For the same molecule, the IC50 in [2] turned out to be 110 nM.

Turning to `C[C@@H](CN1CC(C(=O)N2CCN(c3ncc(Cl)cn3)CC2)C1)Nc1cn[nH]c(=O)c1C(F)(F)F`, the inhibition in [1] is 75.5%.

As to `C[C@@H](CN1CC(C(=O)N2CCN(c3nccc(C(F)(F)F)n3)CC2)C1)Nc1cn[nH]c(=O)c1C(F)(F)F`, the inhibition in data set [1] came out at 65%.

As to `C[C@@H](CN1CC(C(=O)N2CCN(c3ncc(S(C)(=O)=O)cn3)CC2)C1)Nc1cn[nH]c(=O)c1C(F)(F)F`, the inhibition in [1] came to 95%. Also, the IC50 in [2] is 29.2 nM.

On to `C[C@@H](CN1CC(C(=O)N2C3CC2CN(c2ncc(C(F)(F)F)cn2)C3)C1)Nc1cn[nH]c(=O)c1C(F)(F)F`, for which the inhibition in data set [1] was found to be 55.5%. The IC50 in data set [2] amounted to 116 nM.

`C[C@@H](CN1CC(C(=O)N2CCN(c3ncc(-c4ccc(C(F)(F)F)cc4)cn3)CC2)C1)Nc1cn[nH]c(=O)c1C(F)(F)F`: the inhibition in data set [1] is 40%.

Take `Cc1cnc(N2CCN(C(=O)C3CN(C[C@H](C)Nc4cn[nH]c(=O)c4C(F)(F)F)C3)CC2)nc1`: in data set [1], the inhibition was found to be 51.4%. Further, the IC50 in [2] worked out at 42.4 nM.

Consider `C[C@@H](CN1CC(C(=O)N2CCN(c3cccc4c3oc3ccccc34)CC2)C1)Nc1cn[nH]c(=O)c1C(F)(F)F`, for which, in data set [1], the inhibition turned out to be 35%.

Consider `C[C@@H](CN1CCC(C(=O)N2CCN(c3ncc(C(F)(F)F)cn3)CC2)C1)Nc1cn[nH]c(=O)c1C(F)(F)F` (some centres undefined), for which the inhibition in data set [1] turned out to be 44.9%. Also, in [3], the half-maximal inhibitory concentration (IC50) came to 1130 nM.

For `C[C@@H](CN1CC(C(=O)N2CCN(c3ncccn3)CC2)C1)Nc1cn[nH]c(=O)c1C(F)(F)F`, in data set [1], the inhibition was 18%.

As for `C[C@@H](CN1CC(C(=O)N2CCN(c3ccc(C(F)(F)F)cc3)CC2)C1)Nc1cn[nH]c(=O)c1C(F)(F)F`, in data set [1], the inhibition was 32%.

In the case of `C[C@@H](CN1CCC(C(=O)N2CCN(c3ncc(C(F)(F)F)cn3)CC2)CC1)Nc1cn[nH]c(=O)c1C(F)(F)F`, the inhibition in data set [1] came out at 33.6%. Further, the IC50 in data set [3] is greater than 5000 nM.

For the molecule `C[C@@H](COCCC(=O)N1CCN(c2ncc(C(F)(F)F)cn2)CC1)Nc1cn[nH]c(=O)c1C(F)(F)F` [ATAMPARIB], the t1/2 in data set [4] worked out at 9 min; in [5], 54 min. For the same molecule, the Tmax in data set [6] came out at 4.8 min; in data set [7], 13.2 min. Besides, in data set [8], the C0 at 24 h came out at 1230 ng/mL. The AUC was found to be 256 ng·h/mL in [9] and 656 ng·h/mL in data set [10]. Besides, in data set [11], the Vd was 0.872 L/kg. In addition, the Vz in data set [12] is 19.694 L/kg. The same molecule gave a clearance in data set [13] of 67 mL/min/kg. In [14], this molecule showed a CL/F of 259 mL/min/kg. Also, the MRT inf was 12 min in [15] and 54 min in data set [16]. The molecule also displayed a bioavailability in data set [17] of 25.7%. Besides, in data set [18], the IC50 at 6 days is greater than 50000 nM. Further, the inhibition in vivo at 100 mg/kg with CT26 [19] is 30%. The Activity result in [20] is listed as “Non-Toxic”; in data set [21], “Non-Toxic”; in [22], “Non-Toxic”; in data set [23], “Non-Toxic”; in the data set with CT26 [24], 48.2%; in the data set with CT26 [25], 19.1%.

With `C[C@@H](CN1CC(C(=O)N2CCN(c3ccc4c(c3)OC(F)(F)O4)CC2)C1)Nc1cn[nH]c(=O)c1C(F)(F)F`, in data set [1], the inhibition worked out at 90%. In addition, in [2], the IC50 is 19.4 nM.

As for `C[C@@H](CN1CC(C(=O)NC2CN(c3ncc(C(F)(F)F)cn3)C2)C1)Nc1cn[nH]c(=O)c1C(F)(F)F`, the inhibition in [1] came to 51%.

As to `C[C@@H](CN1CC(C(=O)N2CCN(c3ncc(Br)cn3)CC2)C1)Nc1cn[nH]c(=O)c1C(F)(F)F`, the inhibition in data set [1] stood at 85.5%. In data set [2], the IC50 was 11.1 nM.

For `O=C(C1CN(CCNc2cn[nH]c(=O)c2C(F)(F)F)C1)N1CCN(c2ncc(C(F)(F)F)cn2)CC1`, the inhibition in data set [1] is 66.8%. Moreover, the IC50 in [2] was determined as 39.3 nM.

`C[C@@H](CN1CC(C(=O)N2CCN(c3ncc(C#N)cn3)CC2)C1)Nc1cn[nH]c(=O)c1C(F)(F)F`: the inhibition in data set [1] was found to be 71.5%. Besides, the IC50 in data set [2] is 34.5 nM.

In the case of `COc1cnc(N2CCN(C(=O)C3CN(C[C@H](C)Nc4cn[nH]c(=O)c4C(F)(F)F)C3)CC2)nc1`, in [1], the inhibition is 56%.

For `O=C(C1CN(CC2(Nc3cn[nH]c(=O)c3C(F)(F)F)CC2)C1)N1CCN(c2ncc(C(F)(F)F)cn2)CC1`, the inhibition in [1] came out at 39.6%.
